Among the data in ChEMBL document CHEMBL4823244, “Synthesis of norisoboldine derivatives and bioactivity assay for inducing the generation of regulatory T cells” (Bioorg Med Chem Lett, 2021) are Activity values, retold here.

For data set [1], the system named is EL4. Kind of data set: Cytotoxicity against mouse EL4 cells assessed as effect on cell viability at 1 to 10 uM measured after 72 hrs by MTT assay. The data set is classed as cell-based. Particulars: el4, 72 h, dose 1-10 µM. (In general: Tetrazolium dyes change colour on reduction, which living cells bring about.)
For data set [2], the system named is T-cell. Kind of data set: Induction of cell differentiation in anti-CD3/CD28 stimulated naive T-cells assessed as upregulation of CD4+ CD25+ cell frequency at 1 uM measured after 72 hrs by flow cytometry analysis. The data set is classed as functional, cell-based. In general terms: In flow cytometry, cells or beads pass a laser one at a time.
Data set [3] has as its system T-cell. Kind of data set: Induction of cell differentiation in anti-CD3/CD28 stimulated naive T-cells assessed as upregulation of Foxp3 mRNA expression at 1 uM measured after 72 hrs by Q-PCR analysis. The data set is classed as functional, cell-based.
In data set [4] the test system is T-cell. Kind of data set: Induction of cell differentiation in anti-CD3/CD28 stimulated naive T-cells assessed as upregulation of Foxp3 mRNA expression at 3 to 30 uM measured after 72 hrs by Q-PCR analysis. The data set is classed as functional, cell-based. Particulars: dose 3-30 µM.
Data set [5] relates to Mus musculus. Kind of data set: Induction of Treg cell differentiation in DSS- induced ulcerative colitis mouse model assessed as increase in Foxp3 mRNA level at 20 to 40 mg/kg, po administered for 10 consecutive days by Q-PCR analysis. The data set is classed as functional, organism-based. Particulars: dose 20-40 mg/kg, time 10.0 day.
For data set [6], the system named is Mus musculus. Kind of data set: Induction of Treg cell differentiation in DSS- induced ulcerative colitis mouse model assessed as number of Treg cells in spleens at 20 mg/kg, po administered for 10 consecutive days by flow cytometry analysis (Rvb= 6.49%). Type of data set: functional. Particulars: time 10 day.
For data set [7], the system named is Mus musculus. Kind of data set: Induction of Treg cell differentiation in DSS- induced ulcerative colitis mouse model assessed as number of Treg cells in spleens at 40 mg/kg, po administered for 10 consecutive days by flow cytometry analysis (Rvb= 6.49%). Type of data set: functional. As to conditions: time 10 day.
In data set [8] the test system is T-cell. Kind of data set: Induction of cell differentiation in anti-CD3/CD28 stimulated naive T-cells assessed as upregulation of IL-10 mRNA expression at 3 to 30 uM measured after 72 hrs by Q-PCR analysis. Type of data set: functional, cell-based. As to conditions: dose 3-30 µM.
Data set [9] has as its system Mus musculus. Kind of data set: Induction of Treg cell differentiation in DSS- induced ulcerative colitis mouse model assessed as number of Treg cells in mesenteric lymph nodes at 20 mg/kg, po administered for 10 consecutive days by flow cytometry analysis (Rvb= 7.52%). As to conditions: time 10 day. The data set is classed as functional.
Data set [10] has as its system Mus musculus. Kind of data set: Antiinflammatory activity in DSS-induced ulcerative colitis mouse model assessed as reduction in DAI score a 20 to 40 mg/kg, po administered for 10 consecutive days. The data set is classed as functional, organism-based. As to conditions: dose 20-40 mg/kg, time 10.0 day.
Data set [11] relates to Mus musculus. Kind of data set: Antiinflammatory activity in DSS-induced ulcerative colitis mouse model assessed as reduction in MPO activity at 20 to 40 mg/kg, po administered for 10 consecutive days. Type of data set: functional, organism-based. Particulars: dose 20-40 mg/kg, time 10.0 day.
Data set [12] has as its system Mus musculus. Kind of data set: Antiinflammatory activity in DSS-induced ulcerative colitis mouse model assessed as protection against colon destruction at 20 to 40 mg/kg, po administered for 10 consecutive days by HE staining based histopathological analysis. Type of data set: functional, organism-based. As to conditions: dose 20-40 mg/kg, time 10.0 day.
Data set [13] relates to Mus musculus. Kind of data set: Induction of Treg cell differentiation in DSS- induced ulcerative colitis mouse model assessed as number of Treg cells in colonic lamina proprias at 40 mg/kg, po administered for 10 consecutive days by flow cytometry analysis (Rvb= 7.97%). The data set is classed as functional. As to conditions: time 10 day.
For data set [14], the system named is T-cell. Kind of data set: Induction of cell differentiation in anti-CD3/CD28 stimulated naive T-cells assessed as upregulation of CD4+ CD25+ cell frequency at 10 uM measured after 72 hrs by flow cytometry analysis. Type of data set: functional, cell-based.
For data set [15], the system named is Mus musculus. Kind of data set: Antiinflammatory activity in DSS-induced ulcerative colitis mouse model assessed as protection against inflammation of colons at 20 to 40 mg/kg, po administered for 10 consecutive days by HE staining based histopathological analysis. Type of data set: functional, organism-based. As to conditions: dose 20-40 mg/kg, time 10.0 day.

Data set [16] deals with Mus musculus. Kind of data set: Induction of Treg cell differentiation in DSS- induced ulcerative colitis mouse model assessed as number of Treg cells in colonic lamina proprias at 20 mg/kg, po administered for 10 consecutive days by flow cytometry analysis (Rvb= 7.97%). The data set is classed as functional. As to conditions: time 10 day.
The test system of data set [17] is Mus musculus. Kind of data set: Antiinflammatory activity in DSS-induced ulcerative colitis mouse model assessed as rescue of colon length shortening at 20 to 40 mg/kg, po administered for 10 consecutive days. The data set is classed as functional, organism-based. Particulars: dose 20-40 mg/kg, time 10.0 day.
Data set [18] concerns T-cell. Kind of data set: Induction of cell differentiation in anti-CD3/CD28 stimulated naive T-cells assessed as number of Treg cells at 10 uM measured after 72 hrs by flow cytometry analysis (reference value: 24 %). The data set is classed as functional.
In data set [19] the test system is Mus musculus. Kind of data set: Induction of Treg cell differentiation in DSS- induced ulcerative colitis mouse model assessed as number of Treg cells in mesenteric lymph nodes at 40 mg/kg, po administered for 10 consecutive days by flow cytometry analysis (Rvb= 7.52%). The data set is classed as functional. As to conditions: time 10 day.
Data set [20] relates to T-cell. Kind of data set: Induction of cell differentiation in anti-CD3/CD28 stimulated naive T-cells assessed as number of Treg cells at 30 uM measured after 72 hrs by flow cytometry analysis (reference value: 24 %). Type of data set: functional.
Data set [21] deals with Mus musculus. Kind of data set: Induction of Treg cell differentiation in DSS- induced ulcerative colitis mouse model assessed as increase in IL-10 mRNA level at 20 to 40 mg/kg, po administered for 10 consecutive days by Q-PCR analysis. Type of data set: functional, organism-based. Particulars: dose 20-40 mg/kg, time 10.0 day.
The test system of data set [22] is T-cell. Kind of data set: Induction of cell differentiation in anti-CD3/CD28 stimulated naive T-cells assessed as number of Treg cells at 3 uM measured after 72 hrs by flow cytometry analysis (reference value: 24 %). Type of data set: functional.
Data set [23] deals with T-cell. Kind of data set: Induction of cell differentiation in anti-CD3/CD28 stimulated naive T-cells assessed as upregulation of Foxp3 expression at 10 uM measured after 72 hrs by Q-PCR analysis. Type of data set: functional, cell-based.
For data set [24], the system named is T-cell. Kind of data set: Induction of cell differentiation in anti-CD3/CD28 stimulated naive T-cells assessed as upregulation of CD4+ CD25+ cell frequency at 0.2 mM measured after 72 hrs by flow cytometry analysis. Type of data set: functional, cell-based.
The subject of data set [25] is T-cell. Kind of data set: Induction of cell differentiation in anti-CD3/CD28 stimulated naive T-cells assessed as upregulation of Foxp3 expression at 0.2 mM measured after 72 hrs by Q-PCR analysis. Type of data set: functional, cell-based.
The test system of data set [26] is T-cell. Kind of data set: Induction of cell differentiation in anti-CD3/CD28 stimulated naive T-cells assessed as upregulation of IL-10 mRNA expression at 0.2 mM measured after 72 hrs by Q-PCR analysis. The data set is classed as functional, cell-based.
Data set [27] relates to T-cell. Kind of data set: Induction of cell differentiation in anti-CD3/CD28 stimulated naive T-cells assessed as number of Treg cells at 0.2 mM measured after 72 hrs by flow cytometry analysis (reference value: 24 %). The data set is classed as functional.

Activity calls are given as the source filed them. The rule behind the calls is not given here.

Turning to `COc1cc2c(cc1O)CC1c3c(cc(OC)c(O)c3-2)CCN1Cc1ccc([N+](=O)[O-])cc1` (configuration not stated), the Activity entry in data set [1] is recorded as “Non-Toxic”.

Regarding `COc1cc2c(cc1O)CC1c3c(cc(OC)c(O)c3-2)CCN1C(=O)c1cc(OC)c(OC)c(OC)c1` (configuration not stated), the Activity entry in [1] is on record as “Non-Toxic”.

Regarding `COc1cc2c(cc1O)CC1c3c(cc(OC)c(O)c3-2)CCN1C(=O)c1ccc(Br)cc1` (configuration not stated), the Activity result in data set [1] is “Non-Toxic”.

`COc1cc2c(cc1O)CC1c3c(cc(OC)c(O)c3-2)CCN1Cc1ccc(Cl)cc1` (configuration not stated): the Activity result in data set [1] is “Non-Toxic”. Also, in data set [2], the result was inactive. The result in data set [3] was Active.

With `COc1cc2c(cc1O)CC1c3c(cc(OC)c(O)c3-2)CCN1Cc1ccccc1` (configuration not stated), the Activity result in [1] was “Non-Toxic”.

As to `COc1cc2c(cc1O)CC1c3c(cc(OC)c(O)c3-2)CCN1Cc1ccc(C)cc1` (configuration not stated), in data set [1], the Activity result was “Non-Toxic”.

Consider `COc1cc2c(cc1O)CC1c3c(cc(OC)c(O)c3-2)CCN1Cc1cc(C)cc(C)c1` (configuration not stated), for which, in data set [1], the Activity entry is reported as “Non-Toxic”.

For `COc1cc2c(cc1O)C[C@@H]1NCCc3cc(OC)c(O)c-2c31`, the result in data set [4], in data set [5], in data set [8], in [10], in data set [11] and in data set [12] was Active. The result in data set [14], in [15], in [17], in data set [21] and in data set [23] was Active. In addition, the Activity was 6.58% in data set [6]; 7.41% in data set [7]; “Non-Toxic” in [1]; 9.8% in [9]; 15.87% in [13]; 12.25% in [16]. For the same compound, the Activity in data set [18] was 31.8%; in [19] it was 14.89%; in [20] it was 44.2%; in data set [22], 24.4%.

As for `COc1cc2c(cc1O)CC1c3c(cc(OC)c(O)c3-2)CCN1Cc1ccc(C#N)cc1` (configuration not stated), the Activity entry in data set [1] is recorded as “Non-Toxic”.

In the case of `COc1cc2c(cc1O)CC1c3c(cc(OC)c(O)c3-2)CCN1Cc1ccc(F)cc1` (configuration not stated), in data set [1], the Activity result was “Non-Toxic”.

With `COc1cc2c(cc1O)CC1c3c(cc(OC)c(O)c3-2)CCN1C(=O)c1ccccc1` (configuration not stated), in data set [1], the Activity entry was “Non-Toxic”.

With `COc1cc2c(cc1O)CC1c3c(cc(OC)c(O)c3-2)CCN1C(=O)c1ccc(C)cc1` (configuration not stated), the Activity result in [1] is reported as “Non-Toxic”.

With `COc1cc2c(cc1O)CC1c3c(cc(OC)c(O)c3-2)CCN1Cc1ccc(Br)cc1` (configuration not stated), the Activity entry in [1] is on record as “Non-Toxic”.

Turning to `CCCC(=O)[O-].[Na+]` [SODIUM BUTYRATE], the result in [24], in [25] and in data set [26] was Active. Also, the Activity result in data set [1] is on record as “Non-Toxic”; in [27], 32.4%.

Take `COc1cccc(CN2CCc3cc(OC)c(O)c4c3C2Cc2cc(O)c(OC)cc2-4)c1` (configuration not stated): the Activity entry in data set [1] is listed as “Non-Toxic”.

For the compound `COc1cc2c(cc1O)CC1c3c(cc(OC)c(O)c3-2)CCN1C(=O)c1ccc([N+](=O)[O-])cc1` (configuration not stated), the Activity entry in [1] was “Non-Toxic”.

Regarding `COc1cc2c(cc1O)CC1c3c(cc(OC)c(O)c3-2)CCN1C(=O)c1ccc(Cl)cc1` (configuration not stated), in data set [1], the Activity result is given as “Non-Toxic”.

For `COc1cc(OC)cc(C(=O)N2CCc3cc(OC)c(O)c4c3C2Cc2cc(O)c(OC)cc2-4)c1` (configuration not stated), the Activity result in data set [1] is recorded as “Non-Toxic”.

Take `COc1cc(CN2CCc3cc(OC)c(O)c4c3C2Cc2cc(O)c(OC)cc2-4)cc(OC)c1` (configuration not stated): the Activity entry in data set [1] is “Non-Toxic”.

Take `COc1ccc(C(=O)N2CCc3cc(OC)c(O)c4c3C2Cc2cc(O)c(OC)cc2-4)cc1` (configuration not stated): the Activity result in data set [1] is “Non-Toxic”.

Turning to `COc1cc2c(cc1O)CC1c3c(cc(OC)c(O)c3-2)CCN1C(=O)c1ccc(F)cc1` (configuration not stated), the Activity entry in [1] is “Non-Toxic”.
